Calls of active or inactive are those of the source. No cut-off for these calls is given here.
Experiments:
[1] = tested on: HCT-116; assay: Inhibition of epithelial-to-mesenchymal transition in human HCT-116 cells assessed as reduction in VEGF-induced cell scattering incubated for 48 hrs by inverted microscopic analysis; assay type: functional, cell-based
[2] = Volume of distribution in BALB/c mouse at 20 mg/kg, ip measured upto 24 hrs by LC-MS/MS analysis; assay type: ADME, organism-based; settings: in vivo
[3] = tested on: HCT-116; assay: Inhibition of epithelial-to-mesenchymal transition in human HCT-116 cells assessed as upregulation of E-cadherin protein expression by immunoblot analysis; assay type: functional, cell-based
[4] = Cytotoxicity against human fR2 cells assessed as cell growth inhibition incubated for 44 hrs by MTT assay; assay type: toxicity, cell-based
[5] = Tmax in BALB/c mouse at 20 mg/kg, ip measured upto 24 hrs by LC-MS/MS analysis; assay type: ADME, organism-based; settings: in vivo
[6] = Clearance in BALB/c mouse at 20 mg/kg, ip measured upto 24 hrs by LC-MS/MS analysis; assay type: ADME, organism-based; settings: in vivo
[7] = tested on: HCT-116; assay: Inhibition of DNA repairing pathway in human HCT-116 cells assessed as downregulation of H2AX protein expression at 0.25 to 2 uM incubated for 24 hrs by immunoblotting analysis; assay type: functional, cell-based; settings: dose 0.25-2 µM
[8] = tested on: HCT-116; assay: Induction of cell cycle arrest in human HCT-116 cells assessed as accumulation of cells at G2 phase at 2 uM incubated for 24 hrs by RNase/PI staining-based FACS flow cytometry analysis (reference value: 33 %); assay type: functional
[9] = tested on: 4T1; assay: Antitumor activity against mouse 4T1 cells implanted in BALB/c mouse assessed as reduction in tumor weight at 20 mg/kg, ip administered every alternate day for 2 weeks relative to control; assay type: functional; design: scale not given: the % may be the effect or the level left
[10] = AUC (0 to infinity) in BALB/c mouse at 20 mg/kg, ip measured upto 24 hrs by LC-MS/MS analysis; assay type: ADME, organism-based; design: dose 20 mg/kg, time < 24 hrs, route ip; settings: in vivo
[11] = tested on: A549; assay: Antiproliferative activity against human A549 cells assessed as cell growth inhibition incubated for 44 hrs by MTT assay; assay type: functional, cell-based; settings: A549, 44 h
[12] = tested on: HCT-116; assay: Induction of DNA double-strand breaks in human HCT-116 cells assessed as increase in gammaH2AX accumulation at 0.25 to 2 uM incubated for 24 hrs by immunoblotting analysis; assay type: functional, cell-based; settings: dose 0.25-2 µM
[13] = tested on: HCT-116; assay: Induction of DNA damage in human HCT-116 cell assessed as increase in olive tail moment at 2 uM incubated for 24 hrs by EtBr-based alkaline Comet assay (Rvb= 0.26%); assay type: functional

Vd [2]: 4.4 L/kg | Tmax [5]: 48 min | CL/F [6]: 30 mL/min/kg | AUC(0-inf) [10]: 11200 ng·h/mL | IC50 [11]: 1680 nM
SMILES: COC(=O)[C@]1([C@H]2CCn3c2nc2ccccc2c3=O)NCCc2c1[nH]c1ccccc21 (racemic)
inhibition [1]: Active | inhibition [3]: Active | IC50 at 44 h [4]: 19.7 µM | inhibition [7]: Active | Activity [8]: 21% | Activity [9]: 63% | Activity [12]: Active | Activity [13]: 14.05%
